Results from patent US8716472B2, “Tripodal cyclohexane derivatives and their use as carbohydrate receptors” (University of Rochester, priority 2006, dated 2014).
“Also recorded” adds a separate entry of the source. Each block holds one compound with its values, some of them ahead of it.

Experiments:
[1] = 1H NMR reverse titration (receptor into the sugar) and Job plot; format: binding; details: CDCl3, n-octyl-β-D-glucopyranoside
Description: (§1) The binding affinity of Compound 12 towards a set of octylglycosides (FIG. 15) was measured using ^1H NMR titrations in CDCl3 and UV titrations in chloroform and methanol.
A reverse titration format (receptor into the sugar) was employed for estimating binding by ^1H NMR titrations in order to avoid the complications caused due to micelles formation by octylglycosides at higher concentrations (Vacca et al., J. Am. Chem. Soc. 126:16456-16465 (2004), which is hereby incorporated by reference in its entirety). […] Job plot analysis (as modified for NMR) (Fokkens et al., Chem. Eur. J. 11:477-494 (2005), which is hereby incorporated by reference in its entirety) verified a 1:1 association between Compound 12 and n-octyl-β-D-glucopyranoside (FIG. 9B).

[2] = Fluorescence titration of n-octyl monosaccharides with receptor; format: binding; details: 298° K
Description: as §1
(§2) The same titration protocol employed in Example 7 was also employed in this Example (methanol at 298° K; duplicate titrations).
(§3) Fluorescence titrations of 7 with the set of octylglycosides (FIG. 15) in methanol were performed to study the effect of substitution of 4-methylquinoline instead of 4-cyanopyridine on the binding affinity and selectivity of Compound 12. […] The stoichiometry of binding between Compound 7 and n-octyl-α-D-glucopyranoside was determined by Job plot to be 1:1 (FIG. 12).

[3] = Fluorescence titration, octanol control; format: binding; details: 298° K
Description: as §1, §2, §3

[4] = 1D 1H NMR titration of receptor with octyl pyranoside; format: binding; details: n-octyl-β-D-glucopyranoside; CDCl3, 298° K; receptor 1 mM
Description: The binding affinity of Compound 11 to octyl pyranosides was tested using 1D ^1H NMR titrations in dry and deacidified CDCl3 at 298° K. The Compound 11 in fixed concentration (1 mM) was titrated with increasing amount of n-octyl-β-D-glucopyranoside and the change in the amide proton resonance of Compound 11 was monitored (FIG. 5A).

[5] = UV-Vis titration, octanol control; format: binding; details: 298° K
Description: as §1
(§4) To derive quantitative binding information, UV-Vis titrations were performed. The receptor at fixed concentration was titrated with the octylglycosides in dry and deacidified chloroform or methanol (298° K). Each titration was performed in duplicate to verify results.

[6] = UV-Vis titration of n-octyl monosaccharides with receptor; format: binding; details: for Ka in chloroform / Ka in methanol: 298° K
Description: as §1, §4

[7] = n-octyl β-D-galacto pyranoside, UV-Vis

Structure (SMILES): N#Cc1ccncc1 [4-cyanopyridine, reference compound]
changes in carbohydrate hydroxyl chemical shifts on titration into the sugar [1]: no chemical shift changes were observed

Structure (SMILES): c1cnc(C2CC(c3cnccn3)CC(c3cnccn3)C2)cn1 (stereo not drawn) [Compound 2, 2,2′,2″-cyclohexane-1,3,5-triyltripyrazine]
melting point: 122 to 124 °C

Structure (SMILES): c1cc(C2CC(c3ccncn3)CC(c3ccncn3)C2)ncn1 (stereo not drawn) [Compound 3, 4,4′,4″-cyclohexane-1,3,5-triyltripyrimidine]
melting point: 126 to 128 °C

Structure (SMILES): Cc1cc(C2CC(c3cc(C)c4ccccc4n3)CC(c3cc(C)c4ccccc4n3)C2)nc2ccccc12 (stereo not drawn) [Compound 7, 2,2,2″-cyclohexane-1,3,5-triyltri(4-methylquinoline)]
Ka in methanol ([2]; n-octyl α-D-galacto pyranoside): 6,600 ± 200 M^−1
Ka in methanol ([2]; n-octyl α-D-gluco pyranoside): 14,900±1700 M^−1
Ka in methanol ([2]; n-octyl α-D-manno pyranoside): 2600 ± 200 M⁻¹
Ka in methanol ([2]; n-octyl β-D-galacto pyranoside): 3,200 ± 80 M^−1
Ka in methanol ([2]; n-octyl β-D-gluco pyranoside): 9,200 ± 600 M^−1
Ka in methanol ([2]; n-octyl β-D-manno pyranoside): >400 M⁻¹
Ka in methanol [3]: (no binding)

Structure (SMILES): Cc1cccc(NC(=O)[C@H]2C[C@@H](C(=O)Nc3cccc(C)n3)C[C@@H](C(=O)Nc3cccc(C)n3)C2)n1 [Compound 11, cis-cyclohexane-1,3,5-tricarboxylic acid tris-[(6-methyl-pyridin-2-yl)-amide]]
Ka (measured affinity, NMR titration) [4]: 91 M⁻¹

More lines, main results first:

affinity for n-octyl-β-D-galactopyranoside relative to the β-D-glucopyranoside ([6]; UV-Vis titration): roughly half
Ka in chloroform ([6]; n-octyl α-D-galacto pyranoside): 17,600 ± 100 M^−1
Ka in methanol ([6]; n-octyl α-D-galacto pyranoside): 9,200 ± 1,100 M^−1
Ka in chloroform ([6]; n-octyl α-D-gluco pyranoside): 183,000±4,200 M^−1
Ka in methanol ([6]; n-octyl α-D-gluco pyranoside): 52,000 ± 2,700 M^−1
Ka in chloroform ([6]; n-octyl α-D-manno pyranoside): 6,700 ± 700 M^−1
Ka in methanol ([6]; n-octyl α-D-manno pyranoside): >1,200 M^−1
Ka in chloroform [6, 7]: 9,800 ± 100 M^−1
Ka in methanol [6, 7]: 7,200 ± 1,700 M^−1
Ka in chloroform ([6]; n-octyl β-D-gluco pyranoside): 25,000 ± 600 M^−1
Ka in methanol ([6]; n-octyl β-D-gluco pyranoside): 11,100 ± 600 M^−1
Ka in methanol ([6]; n-octyl β-D-manno pyranoside): (not saturable)
changes in carbohydrate hydroxyl chemical shifts on titration into the sugar [1]: clearly visible
Structure (SMILES): N#Cc1ccnc(C2CC(c3cc(C#N)ccn3)CC(c3cc(C#N)ccn3)C2)c1 (stereo not drawn) [Compound 12, 2,2′,2″-cyclohexane-1,3,5-triyltri(4-cyanopyridinyl)]
Ka in chloroform [5]: No binding; also recorded: (no binding)
Ka in chloroform ([6]; n-octyl β-D-manno pyranoside): did not reach saturation up to the limit of the titration; also recorded: (not saturable)

Ka in chloroform ([6]; n-octyl α-D-gluco pyranoside): no affinity
Structure (SMILES): N#Cc1ccnc(C2CC(c3cc(C#N)ccn3)CC(c3cnccc3C#N)C2)c1 (stereo not drawn) [Compound 14, 2,2′,3′-cyclohexane-1,3,5-triyltri(4-cyanopyridinyl)]
